Values after ≈ are worked out from the molar mass of the structure shown. Values belong to the molecule of their own block, whether it stands above or below them.
Legend:
[1] = test system: Plasmodium falciparum; experiment: Antimalarial activity against chloroquine sensitive Plasmodium falciparum D10 incubated for 72 hrs by spectrophotometric analysis; assay type: functional, organism-based; details: D10, 72 h
[2] = test system: Plasmodium falciparum; experiment: Antimalarial activity against chloroquine resistant Plasmodium falciparum W2 incubated for 72 hrs by spectrophotometric analysis; assay type: functional, organism-based; details: W2, 72 h
[3] = Cytotoxicity against HMEC-1 cells treated for 72 hrs by MTT assay; assay type: toxicity, cell-based; details: human
[4] = test system: Plasmodium falciparum; experiment: Antiplasmodial activity against Plasmodium falciparum K1; assay type: functional, organism-based
[5] = test system: Plasmodium falciparum; experiment: Antimalarial activity against Plasmodium falciparum Dd2 by 96-well microtitre plate method based scintillation counting analysis; assay type: functional, organism-based
[6] = test system: Plasmodium falciparum; experiment: Antiplasmodial activity against Plasmodium falciparum Dd2 incubated for 48 hrs; assay type: functional, organism-based; details: Dd2, 48 h
[7] = test system: Plasmodium falciparum; experiment: Antiplasmodial activity against Plasmodium falciparum 3D7 incubated for 48 hrs; assay type: functional, organism-based; details: 3D7, 48 h
[8] = test system: Plasmodium falciparum; experiment: Antimalarial activity against Plasmodium falciparum W2; assay type: functional, organism-based
[9] = test system: Plasmodium falciparum; experiment: Antimalarial activity against Plasmodium falciparum D10; assay type: functional, organism-based
[10] = Cytotoxicity against HMEC-1 cells; assay type: toxicity, cell-based; details: human
[11] = test system: Plasmodium falciparum; experiment: Antiplasmodial activity against Chloroquine resistant Plasmodium falciparum FcB1 incubated for 48 hrs; assay type: functional, organism-based; details: FcB1, 48 h
[12] = test system: Plasmodium falciparum; experiment: Antiplasmodial activity against Chloroquine resistant Plasmodium falciparum FcB1 incubated for 48 hrs by SYBR green I based fluorescence assay; assay type: functional, organism-based; details: FcB1, 48 h
[13] = test system: HepG2; experiment: Cytotoxicity against human HepG2 cells incubated for 24 hrs by MTT assay; assay type: functional
[14] = test system: A549; experiment: Cytotoxicity against human A549 cells incubated for 24 hrs by MTT assay; assay type: functional
[15] = test system: Plasmodium falciparum; experiment: Antimalarial activity against Plasmodium falciparum W2 incubated for 24 hrs; assay type: functional, organism-based; details: for IC50: Plasmodium falciparum, W2, 24 h
[16] = test system: Plasmodium falciparum; experiment: Antimalarial activity against Plasmodium falciparum K14 incubated for 42 hrs in presence of 3H-hypoxanthine by top-count microbeta counter analysis; assay type: functional, organism-based
[17] = test system: Plasmodium falciparum; experiment: Antimalarial activity against Plasmodium falciparum K1 by 96-well microtitre plate method based scintillation counting analysis; assay type: functional, organism-based
[18] = test system: Plasmodium falciparum; experiment: Antiplasmodial activity against chloroquine sensitive Plasmodium falciparum F-32 Tanzania incubated for 48 hrs; assay type: functional, organism-based
[19] = test system: Plasmodium falciparum; experiment: Antimalarial activity against Plasmodium falciparum Dd2 treated for 48 hrs followed by hypoxanthine addition; assay type: functional, organism-based; details: Dd2, 48 h
[20] = test system: Plasmodium berghei; experiment: In vivo antiplasmodial activity against Chloroquine susceptible Plasmodium berghei ANKA infected in CD-1 mouse assessed as decrease in parasitaemia at 30 to 50 mg/kg/day, ip relative to control; assay type: functional; parameters: scale not given: the % may be the effect or the level left; details: dose 30-50 mg/kg/day
[21] = test system: Plasmodium berghei; experiment: In vivo antiplasmodial activity against Plasmodium berghei ANKA infected in CD-1 mouse assessed as decrease in parasitaemia at 50 mg/kg, ip measured after 4 days relative to control; assay type: functional; parameters: scale not given: the % may be the effect or the level left; details: time 4 day
[22] = test system: Plasmodium falciparum; experiment: Antimalarial activity against Plasmodium falciparum D6; assay type: functional, organism-based
[23] = test system: Plasmodium falciparum; experiment: Antimalarial activity against Plasmodium falciparum TM91C235; assay type: functional, organism-based
[24] = test system: Plasmodium berghei; experiment: Antimalarial activity against Plasmodium berghei; assay type: functional, organism-based
[25] = test system: Plasmodium falciparum; experiment: Antimalarial activity against Plasmodium falciparum 3D7 infected in human erythrocytes; assay type: functional, organism-based; details: 3D7, Erythrocyte

SMILES: CCC1=C(NC(=O)C(C)(C)C)C(=O)C2=C(NCCS2(=O)=O)C1=O
IC50 [1]: 0.39 µM | IC50 [2]: 0.58 µM | IC50 at 72 h [3]: 1.6 µM

SMILES: O=C(O)c1ccc2c(n1)C(=O)C1=C(C2=O)S(=O)(=O)C=CN1
IC50 [4]: 0.6 µM

SMILES: O=C(O)c1ccc2c(n1)C(=O)C1=C(C2=O)S(=O)(=O)CCN1 [ACIDIATHIAZONE A]
IC50 [4]: 3.3 µM

SMILES: CCC1=C(NC(=O)C(C)(C)C)C(=O)C2=C(C1=O)S(=O)(=O)CCN2
IC50 [1]: 6.15 µM | IC50 [2]: 6.31 µM | IC50 at 72 h [3]: > 100 µM

SMILES: COc1cc2c(cc1O)CO[C@@H]1C3=C(OC[C@H]21)C(=O)c1ccccc1C3=O
IC50 [11]: 0.04 µM

SMILES: COc1ccc2c(c1)C1=C(C(=O)C2=O)C(C)(C)C(C)O1 (configuration not stated)
IC50 [12]: 0.58 µM

SMILES: O=C1C2=C(C(=O)c3ccccc31)[C@H]1OCc3cc4c(cc3[C@H]1CO2)OCO4
IC50 [11]: 0.28 µM

SMILES: COc1ccc(N2C(=O)C(Oc3ccc(Cl)cc3Cl)C2c2ccc3c(c2)C(=O)c2ccccc2C3=O)cc1 (configuration not stated)
IC50 [16]: 47 µM

SMILES: COc1cc2c(cc1O)[C@H]1COC3=C(C(=O)c4ccccc4C3=O)[C@H]1OC2
IC50 [11]: 0.03 µM

SMILES: COc1ccc(N2C(=O)C(Oc3ccccc3)C2c2ccc3c(c2)C(=O)c2ccccc2C3=O)cc1 (configuration not stated)
IC50 [16]: 27 µM

SMILES: CN(C)c1ccc(N2C(=O)C(Oc3ccc(Cl)cc3)C2c2ccc3c(c2)C(=O)c2ccccc2C3=O)cc1 (configuration not stated)
IC50 [16]: 21 µM

SMILES: COC1=C(Cc2ccc(OC(F)(F)F)cc2)C(=O)C2=C(NCCS2(=O)=O)C1=O
IC50 [8]: 1.12 µM | IC50 [9]: 0.81 µM | IC50 [10]: 3.59 µM

SMILES: COc1cc(O)c(-c2c(C)cc(O)c3c2C(=O)c2ccc([C@H]4c5cccc(O)c5C(=O)c5c(O)cc(C)c(-c6c(O)cc(OC)c(C(C)=O)c6O)c54)c(O)c2C3=O)c(O)c1C(C)=O (stereo in doubt; 12)
IC50 [17]: 0.23 µM

SMILES: COc1cc(O)c(-c2c(C)cc(O)c3c2C(=O)c2ccc([C@H]4c5cccc(O)c5C(=O)c5c(O)cc(C)c(-c6c(O)cc(OC)c(C(C)=O)c6O)c54)c(O)c2C3=O)c(O)c1C(C)=O (stereo in doubt; 11)
IC50 ([17]; Plasmodium falciparum, K1): 0.14 µM

SMILES: O=C(Cn1cc(COC2=CC(=O)c3ccccc3C2=O)nn1)c1ccc(-c2ccccc2)cc1
IC50 [18]: 1.6 µM

SMILES: O=C1c2ccccc2C(=O)c2cc(C3C(Oc4ccccc4)C(=O)N3c3cccc4ccccc34)ccc21 (configuration not stated)
IC50 [16]: 41 µM

SMILES: COc1cc(OC)c(-c2c(C)cc(O)c3c2C(=O)c2cccc(O)c2C3=O)c(O)c1C(C)=O
IC50 ([17]; Plasmodium falciparum, K1): 0.751 µg/mL

SMILES: Cc1cc2c(c(C3=C(O)C(=O)c4c(O)ccc(O)c4C3=O)c1)C(=O)c1c(O)c3c(c(O)c1C2=O)C=CC(C)(C)O3
IC50 [5]: 1.57 µg/mL (≈ 2.9 µM)

SMILES: O=C(O)c1cc2c(s1)C(=O)C1=C(C2=O)S(=O)(=O)C=CN1
IC50 [4]: 0.035 µM

SMILES: CN(C)c1ccc(N2C(=O)C(Oc3ccccc3)C2c2ccc3c(c2)C(=O)c2ccccc2C3=O)cc1 (configuration not stated)
IC50 [16]: 9 µM

SMILES: COC1=C(Cc2ccccc2)C(=O)C2=C(NCCS2(=O)=O)C1=O
IC50 [1]: 0.6 µM | IC50 [2]: 0.7 µM | IC50 at 72 h [3]: 17.6 µM

SMILES: COc1ccc(N2C(=O)C(Oc3ccc(Cl)cc3)C2c2ccc3c(c2)C(=O)c2ccccc2C3=O)cc1 (configuration not stated)
IC50 [16]: 38 µM

SMILES: O=C1c2ccccc2C(=O)c2cc(C3C(Oc4ccc(Cl)cc4)C(=O)N3c3cccc4ccccc34)ccc21 (configuration not stated)
IC50 [16]: 45 µM

SMILES: CCC1=C(OC)C(=O)C2=C(C1=O)S(=O)(=O)CCN2
IC50 [1]: 2.45 µM | IC50 [2]: 2.37 µM | IC50 at 72 h [3]: > 100 µM

SMILES: COc1cc2c(cc1O)[C@H]1COC3=C(C(=O)c4ccccc4C3=O)[C@H]1O2
IC50 [11]: ≥ 10 µM

SMILES: CC1=C(Cc2ccc(C(F)(F)F)cc2)C(=O)c2ccccc2C1=O
Activity [20]: 20.7%

SMILES: O=C1c2ccccc2C(=O)c2cc(C3C(Oc4ccc5ccccc5c4)C(=O)N3c3cccc4ccccc34)ccc21 (configuration not stated)
IC50 [16]: 39 µM

SMILES: CN(C)c1ccc(N2C(=O)C(Oc3ccc(Cl)cc3Cl)C2c2ccc3c(c2)C(=O)c2ccccc2C3=O)cc1 (configuration not stated)
IC50 [16]: 48 µM

Second part, led by results:

IC50 [5]: 0.8 µg/mL (≈ 2.92 µM)
SMILES: CC(C)=CCC1=C(O)C(=O)c2c(O)ccc(O)c2C1=O

IC50 [6]: 1.2 µM | IC50 [7]: 1.5 µM
SMILES: Cc1cc2c(o1)C(=O)c1ccccc1C2=O

IC50 [8]: 1.63 µM | IC50 [9]: 1.9 µM
SMILES: COC1=C(Cc2ccc(Cl)cc2)C(=O)C2=C(NCCS2(=O)=O)C1=O
IC50 [10]: 8.51 µM

IC50 [15]: 20.5 µM
SMILES: CC1(C)CCC2=C(O1)c1ccccc1C(=O)C2=O [LAPACHONE]
CC50 [13]: 2.09 µM | CC50 [14]: 2.09 µM

IC50 [6]: 1.6 µM | IC50 [7]: 1.2 µM
SMILES: C/C=C/C1=C(O)C(=O)c2ccccc2C1=O

IC50 [15]: 15.8 µM
SMILES: CC1(C)OC2=C(CC1I)C(=O)C(=O)c1ccccc12 (configuration not stated)

IC50 [5]: 1.63 µg/mL (≈ 6.41 µM)
SMILES: Cc1ccc2c(c1)C(=O)c1c(O)ccc(O)c1C2=O

IC50 [15]: 2.3 µM
SMILES: CC(=O)OC1=C(CC=C(C)C)C(=O)c2ccccc2C1=O
IC100 ([15]; time 24 hrs): 4.7 µM

IC50 [6]: 0.22 µM | IC50 [7]: 2.4 µM
SMILES: CCCC/C=C/C1=C(O)C(=O)c2ccccc2C1=O

IC50 [6]: 1.8 µM | IC50 [7]: 0.4 µM
SMILES: CCc1cc2c(o1)C(=O)c1ccccc1C2=O

IC50 [18]: 0.8 µM
SMILES: COc1ccc(-n2cc(COC3=CC(=O)c4ccccc4C3=O)nn2)cc1F

IC50 [19]: 0.055 µM
SMILES: CC1=C(Cc2ccc(O)cc2)C(=O)c2ccccc2C1=O
Activity [20]: 20.7%

IC50 [18]: 1.2 µM
SMILES: O=C1C=C(OCc2cn(-c3ccccc3)nn2)C(=O)c2ccccc21

IC50 [19]: 0.046 µM
SMILES: CC1=C(Cc2ccc(F)cc2)C(=O)c2ccccc2C1=O
Activity [20]: 20.7%

IC50 [15]: 19.5 µM
SMILES: CC1(C)OC2=C(CC1I)C(=O)c1ccccc1C2=O (configuration not stated)

IC50 [19]: 0.046 µM
SMILES: CC1=C(Cc2ccc(Br)cc2)C(=O)c2ccccc2C1=O
Activity [21]: 35.8%

IC50 [22]: 0.005 µM | IC50 [8]: 0.065 µM | IC50 [23]: 0.084 µM | IC50 [24]: 0.017 µM
SMILES: C[C@@H](CCCCCC(F)(F)F)CC1=C(O)C(=O)c2ccccc2C1=O

IC50 [25]: 15.2 µM
SMILES: CC(C)(C)CC1=C(O)C(=O)c2ccccc2C1=O

IC50 [25]: 16 µM
SMILES: COc1ccc(CC2=C(O)C(=O)c3ccccc3C2=O)cc1

IC50 [22]: 0.063 µM | IC50 [8]: 0.214 µM | IC50 [23]: 0.348 µM | IC50 [24]: 0.0962 µM
SMILES: CCCCCC[C@H](C)CC1=C(O)C(=O)c2ccccc2C1=O

IC50 [19]: 0.046 µM
SMILES: CC1=C(Cc2ccc([N+](=O)[O-])cc2)C(=O)c2ccccc2C1=O
Activity [20]: 20.7%

IC50 [25]: 13.7 µM
SMILES: O=C1C(O)=C(Cc2ccc([N+](=O)[O-])cc2)C(=O)c2ccccc21

IC50 [19]: 0.054 µM
SMILES: CC1=C(Cc2ccc(C(C)(C)C)cc2)C(=O)c2ccccc2C1=O
Activity [20]: 20.7%

IC50 [18]: 3.3 µM
SMILES: O=C1C=C(OCc2cn(/C=C/c3ccc(C(F)(F)F)cc3)nn2)C(=O)c2ccccc21

Source: ChEMBL document CHEMBL5113376, “Antimalarial application of quinones: A recent update” (Eur J Med Chem, 2021)
